Measurements: ChEMBL document CHEMBL1147087, “An antidepressant that extends lifespan in adult Caenorhabditis elegans” (Nature, 2007)

Assays:
Format in all cases: functional
Caenorhabditis elegans [1] = assay: Effect on life span of Caenorhabditis elegans at 100 uM
Caenorhabditis elegans [2] = assay: Effect on life span of Caenorhabditis elegans at 50 uM
Caenorhabditis elegans [3] = assay: Effect on life span of Caenorhabditis elegans at 1000 uM
Caenorhabditis elegans [4] = assay: Effect on life span of Caenorhabditis elegans at 3000 uM
Caenorhabditis elegans [5] = assay: Effect on life span of Caenorhabditis elegans at 200 uM
Caenorhabditis elegans [6] = assay: Effect on life span of Caenorhabditis elegans at 250 uM
Caenorhabditis elegans [7] = assay: Effect on life span of Caenorhabditis elegans at 10 uM
Caenorhabditis elegans [8] = assay: Effect on life span of Caenorhabditis elegans N2 treated on day 5 at 10 uM
Caenorhabditis elegans [9] = assay: Effect on life span of Caenorhabditis elegans daf16 mutant at 10 uM
Caenorhabditis elegans [10] = assay: Effect on life span of Caenorhabditis elegans daf2 mutant at 10 uM
Caenorhabditis elegans [11] = assay: Effect on life span of Caenorhabditis elegans eat2 mutant at 10 uM
Caenorhabditis elegans [12] = assay: Effect on life span of Caenorhabditis elegans clk1 mutant at 10 uM
Caenorhabditis elegans [13] = assay: Effect on life span of Caenorhabditis elegans N2 at 10 uM
Caenorhabditis elegans [14] = assay: Effect on life span of Caenorhabditis elegans tph1 mutant at 10 uM
Caenorhabditis elegans [15] = assay: Effect on life span of Caenorhabditis elegans mod5 mutant at 10 uM
Caenorhabditis elegans [16] = assay: Effect on life span of Caenorhabditis elegans ser1 mutant at 10 uM
Caenorhabditis elegans [17] = assay: Effect on life span of Caenorhabditis elegans ser2 mutant at 10 uM
Caenorhabditis elegans [18] = assay: Effect on life span of Caenorhabditis elegans ser3 mutant at 10 uM
Caenorhabditis elegans [19] = assay: Effect on life span of Caenorhabditis elegans ser3 mutant at 250 uM
Caenorhabditis elegans [20] = assay: Effect on life span of Caenorhabditis elegans ser4 mutant at 10 uM
Caenorhabditis elegans [21] = assay: Effect on life span of Caenorhabditis elegans ser7 mutant at 10 uM
Caenorhabditis elegans [22] = assay: Effect on life span of Caenorhabditis elegans mod1 mutant at 10 uM
Caenorhabditis elegans [23] = assay: Effect on life span of Caenorhabditis elegans daf16(mu86) mutant at 50 uM
Caenorhabditis elegans [24] = assay: Effect on life span of Caenorhabditis elegans eat2(ad1116) mutant at 50 uM
Caenorhabditis elegans [25] = assay: Effect on life span of Caenorhabditis elegans ser3(ok2007) mutant at 50 uM
Caenorhabditis elegans [26] = assay: Effect on life span of Caenorhabditis elegans ser4(ok512) mutant at 50 uM
Caenorhabditis elegans [27] = assay: Effect on life span of Caenorhabditis elegans ser7(tm1325) mutant at 50 uM
Caenorhabditis elegans [28] = assay: (§1) Effect on life span of Caenorhabditis elegans N2 treated on day 5 at 50 uM
Caenorhabditis elegans [29] = assay: Effect on life span of Caenorhabditis elegans N2 treated on day 1 at 50 uM
Caenorhabditis elegans [30] = assay: Effect on life span of diet restricted Caenorhabditis elegans N2 at 50 uM
Caenorhabditis elegans [31] = assay: Increase in life span of Caenorhabditis elegans
Caenorhabditis elegans [32] = assay: as §1; remark: listed apart in the source
Caenorhabditis elegans [33] = assay: Effect on life span of Caenorhabditis elegans clk1([…]) mutant at 50 uM
Caenorhabditis elegans [34] = assay: Effect on life span of Caenorhabditis elegans daf2(e1370) mutant at 50 uM
Caenorhabditis elegans [35] = assay: Effect on life span of Caenorhabditis elegans mod1(ok103) mutant at 50 uM
Caenorhabditis elegans [36] = assay: Effect on life span of Caenorhabditis elegans mod5(n3314) mutant at 50 uM
Caenorhabditis elegans [37] = assay: Effect on life span of Caenorhabditis elegans ser1(ok345) mutant at 50 uM
Caenorhabditis elegans [38] = assay: Effect on life span of Caenorhabditis elegans ser2(pk1357) mutant at 50 uM
Caenorhabditis elegans [39] = assay: Effect on life span of Caenorhabditis elegans tph(mg280) mutant at 50 uM
Caenorhabditis elegans [40] = assay: Effect on life span of Caenorhabditis elegans N2 from L1 stage at 2 uM
Caenorhabditis elegans [41] = assay: Effect on life span of Caenorhabditis elegans N2 from L1 stage at 10 uM
Caenorhabditis elegans [42] = assay: Effect on life span of Caenorhabditis elegans N2 from L1 stage at 100 uM
Caenorhabditis elegans [43] = assay: Effect on life span of Caenorhabditis elegans N2 from L1 stage at 200 uM
Caenorhabditis elegans [44] = assay: Effect on life span of Caenorhabditis elegans N2 treated on day 1 at 2 uM
Caenorhabditis elegans [45] = assay: Effect on life span of Caenorhabditis elegans N2 treated on day 1 at 10 uM
Caenorhabditis elegans [46] = assay: Effect on life span of Caenorhabditis elegans N2 treated on day 1 at 100 uM
Caenorhabditis elegans [47] = assay: Effect on life span of Caenorhabditis elegans N2 treated on day 1 at 200 uM
Caenorhabditis elegans [48] = assay: Effect on life span of Caenorhabditis elegans daf16 mutant at 50 uM
Caenorhabditis elegans [49] = assay: Effect on life span of Caenorhabditis elegans daf2 mutant at 50 uM
Caenorhabditis elegans [50] = assay: Effect on life span of Caenorhabditis elegans eat2 mutant at 50 uM
Caenorhabditis elegans [51] = assay: Effect on life span of Caenorhabditis elegans clk1 mutant at 50 uM
Caenorhabditis elegans [52] = assay: Effect on life span of Caenorhabditis elegans N2 at 50 uM
Caenorhabditis elegans [53] = assay: Effect on life span of Caenorhabditis elegans N2 at 2 uM
Caenorhabditis elegans [54] = assay: Effect on life span of Caenorhabditis elegans N2 at 250 uM
Caenorhabditis elegans [55] = assay: Effect on life span of Caenorhabditis elegans tph1 mutant at 50 uM
Caenorhabditis elegans [56] = assay: Effect on life span of Caenorhabditis elegans tph1 mutant at 250 uM
Caenorhabditis elegans [57] = assay: Effect on life span of Caenorhabditis elegans mod5 mutant at 50 uM
Caenorhabditis elegans [58] = assay: Effect on life span of Caenorhabditis elegans ser1 mutant at 50 uM
Caenorhabditis elegans [59] = assay: Effect on life span of Caenorhabditis elegans ser2 mutant at 50 uM
Caenorhabditis elegans [60] = assay: Effect on life span of Caenorhabditis elegans ser3 mutant at 50 uM
Caenorhabditis elegans [61] = assay: Effect on life span of Caenorhabditis elegans ser3 mutant at 2 uM
Caenorhabditis elegans [62] = assay: Effect on life span of Caenorhabditis elegans ser4 mutant at 50 uM
Caenorhabditis elegans [63] = assay: Effect on life span of Caenorhabditis elegans ser4 mutant at 2 uM
Caenorhabditis elegans [64] = assay: Effect on life span of Caenorhabditis elegans ser4 mutant at 250 uM
Caenorhabditis elegans [65] = assay: Effect on life span of Caenorhabditis elegans ser7 mutant at 50 uM
Caenorhabditis elegans [66] = assay: Effect on life span of Caenorhabditis elegans mod1 mutant at 50 uM
Caenorhabditis elegans [67] = assay: Effect on life span of Caenorhabditis elegans ser3(ad1774) mutant at 50 uM
Caenorhabditis elegans [68] = assay: Effect on life span of Caenorhabditis elegans N2 from L1 stage at 50 uM

## COc1ccccc1N1CCN(CCCCN2C(=O)CCC2=O)CC1
Caenorhabditis elegans [1]
  Activity: -4%
Caenorhabditis elegans [2]
  Activity: 6%

## O=C1c2ccccc2S(=O)(=O)N1CCCCN1CCN(c2ncccn2)CC1 [IPSAPIRONE]
Caenorhabditis elegans [1]
  Activity: 0%
Caenorhabditis elegans [2]
  Activity: 3%

## CN1CCN2c3ncccc3Cc3ccccc3C2C1 (centres undefined) [MIRTAZAPINE]
Caenorhabditis elegans [1]
  Activity: 5%
Caenorhabditis elegans [2]
  Activity: 20%

## c1cc2c(c(N3CCNCC3)c1)OCCO2 [ELTOPRAZINE]
Caenorhabditis elegans [1]
  Activity: -8%
Caenorhabditis elegans [2]
  Activity: -12%

## NCCc1c[nH]c2ccc(O)cc12 [SEROTONIN]
Caenorhabditis elegans [3]
  Activity: -8%
Caenorhabditis elegans [4]
  Activity: -6%

## CNCCC(Oc1ccc(C(F)(F)F)cc1)c1ccccc1 (centres undefined) [FLUOXETINE]
Caenorhabditis elegans [5]
  Activity: -48%
Caenorhabditis elegans [1]
  Activity: -11%
Caenorhabditis elegans [2]
  Activity: -12%

## N[C@@H](Cc1ccccc1)C(=O)O [PHENYLALANINE]
Caenorhabditis elegans [5]
  Activity: -2%
Caenorhabditis elegans [2]
  Activity: -1%

## CN[C@H]1CC[C@@H](c2ccc(Cl)c(Cl)c2)c2ccccc21 [SERTRALINE]
Caenorhabditis elegans [2]
  Activity: -76%
Caenorhabditis elegans [6]
  Activity: -80%

## CNCCCN1c2ccccc2CCc2ccccc21 [DESIPRAMINE]
Caenorhabditis elegans [5]
  Activity: 3%
Caenorhabditis elegans [2]
  Activity: -2%
Caenorhabditis elegans [7]
  Activity: -6%

## CSc1ccc2c(c1)C(N1CCN(C)CC1)Cc1ccccc1S2 (centres undefined) [METITEPINE]
Caenorhabditis elegans [8]
  Activity: -1%
Caenorhabditis elegans [9]
  Activity: 10%
Caenorhabditis elegans [10]
  Activity: 21%
Caenorhabditis elegans [11]
  Activity: -3%
Caenorhabditis elegans [12]
  Activity: 10%
Caenorhabditis elegans [7]
  Activity: 25%
Caenorhabditis elegans [13]
  Activity: 25%
Caenorhabditis elegans [14]
  Activity: -2%
Caenorhabditis elegans [15]
  Activity: 8%
Caenorhabditis elegans [16]
  Activity: 38%
Caenorhabditis elegans [17]
  Activity: 17%
Caenorhabditis elegans [18]
  Activity: -9%
Caenorhabditis elegans [19]
  Activity: -1%
Caenorhabditis elegans [20]
  Activity: 8%
Caenorhabditis elegans [21]
  Activity: 40%
Caenorhabditis elegans [22]
  Activity: 21%

## CCCN(CCC)C1CCc2cccc(O)c2C1 (centres undefined) [8-OH-DPAT]
Caenorhabditis elegans [5]
  Activity: -13%
Caenorhabditis elegans [1]
  Activity: 8%
Caenorhabditis elegans [2]
  Activity: 3%

## CN1CCC(=C2c3ccccc3C=Cc3ccccc32)CC1 [CYPROHEPTADINE]
Caenorhabditis elegans [23]
  Activity: 6%
Caenorhabditis elegans [24]
  Activity: 4%
Caenorhabditis elegans [25]
  Activity: -4%
Caenorhabditis elegans [26]
  Activity: 16%
Caenorhabditis elegans [27]
  Activity: 54%
Caenorhabditis elegans [28]
  Activity: 7%
Caenorhabditis elegans [1]
  Activity: 17%
Caenorhabditis elegans [2]
  Activity: 19%
Caenorhabditis elegans [29]
  Activity: 33%
Caenorhabditis elegans [30]
  Activity: 9%

## Clc1cccc(N2CCNCC2)c1 [CHLOROPHENYLPIPERAZINE]
Caenorhabditis elegans [2]
  Activity: -26%

## O=C1CC(c2cccc([N+](=O)[O-])c2)CC2=C1C(c1ccccc1)Nc1ccccc1N2 (centres undefined)
Caenorhabditis elegans [31]
  Activity: 20%

## CN1CCN2c3ccccc3Cc3ccccc3C2C1 (centres undefined) [MIANSERIN]
Caenorhabditis elegans [32]
  Activity: 1%
Caenorhabditis elegans [33]
  Activity: 3%
Caenorhabditis elegans [23]
  Activity: 14%
Caenorhabditis elegans [34]
  Activity: 11%
Caenorhabditis elegans [24]
  Activity: 2%
Caenorhabditis elegans [35]
  Activity: 25%
Caenorhabditis elegans [36]
  Activity: 2%
Caenorhabditis elegans [37]
  Activity: 38%
Caenorhabditis elegans [38]
  Activity: 19%
Caenorhabditis elegans [25]
  Activity: -2%
Caenorhabditis elegans [26]
  Activity: 7%
Caenorhabditis elegans [27]
  Activity: 60%
Caenorhabditis elegans [39]
  Activity: 0%
Caenorhabditis elegans [40]
  Activity: 8%
Caenorhabditis elegans [41]
  Activity: 9%
Caenorhabditis elegans [42]
  Activity: -4%
Caenorhabditis elegans [43]
  Activity: 5%
Caenorhabditis elegans [44]
  Activity: 13%
Caenorhabditis elegans [45]
  Activity: 18%
Caenorhabditis elegans [46]
  Activity: 13%
Caenorhabditis elegans [47]
  Activity: -4%
Caenorhabditis elegans [48]
  Activity: 12%
Caenorhabditis elegans [49]
  Activity: 16%
Caenorhabditis elegans [50]
  Activity: -4%
Caenorhabditis elegans [51]
  Activity: 10%
Caenorhabditis elegans [28]
  Activity: 6%
Caenorhabditis elegans [2]
  Activity: 25%
Caenorhabditis elegans [52]
  Activity: 48%
Caenorhabditis elegans [13]
  Activity: 31%
Caenorhabditis elegans [53]
  Activity: 19%
Caenorhabditis elegans [54]
  Activity: -17%
Caenorhabditis elegans [55]
  Activity: 10%
Caenorhabditis elegans [56]
  Activity: -1%
Caenorhabditis elegans [57]
  Activity: 14%
Caenorhabditis elegans [58]
  Activity: 53%
Caenorhabditis elegans [59]
  Activity: 19%
Caenorhabditis elegans [60]
  Activity: -5%
Caenorhabditis elegans [18]
  Activity: -2%
Caenorhabditis elegans [61]
  Activity: -3%
Caenorhabditis elegans [19]
  Activity: -1%
Caenorhabditis elegans [62]
  Activity: 7%
Caenorhabditis elegans [63]
  Activity: 6%
Caenorhabditis elegans [64]
  Activity: -20%
Caenorhabditis elegans [65]
  Activity: 50%
Caenorhabditis elegans [66]
  Activity: 29%
Caenorhabditis elegans [67]
  Activity: 3%
Caenorhabditis elegans [29]
  Activity: 31%
Caenorhabditis elegans [30]
  Activity: 4%
Caenorhabditis elegans [68]
  Activity: 10%

## CN(C)Cc1c[nH]c2ccccc12 [GRAMINE]
Caenorhabditis elegans [2]
  Activity: 2%
Caenorhabditis elegans [7]
  Activity: 3%

## Fc1ccc([C@@H]2CCNC[C@H]2COc2ccc3c(c2)OCO3)cc1 [PAROXETINE]
Caenorhabditis elegans [2]
  Activity: -42%
Caenorhabditis elegans [6]
  Activity: -76%

## COc1ccccc1N1CCN(CCCCN2C(=O)c3ccccc3C2=O)CC1 [NAN-190]
Caenorhabditis elegans [1]
  Activity: 2%
Caenorhabditis elegans [2]
  Activity: -11%

## CN(C)CCCN1c2ccccc2CCc2ccccc21 [IMIPRAMINE]
Caenorhabditis elegans [5]
  Activity: -2%
Caenorhabditis elegans [2]
  Activity: -1%
Caenorhabditis elegans [7]
  Activity: -3%
